According to patent publication US9844542B2, “Substituted imidazopyridine and triazolopyridine compounds as negative allosteric modulators of mGluR5” (Vanderbilt University, priority 2013, dated 2017):

Test system: N-methyl-D-aspartate (NMDA) receptor
Experiment: not given
Settings: at higher concentrations; cited from earlier work
In the case of `Cc1cccc(C#Cc2ccccc2)n1` [MPEP, 2-methyl-6-(phenylethynyl) pyridine], the NMDA receptor activity is listed as “directly inhibit”.

Test system: not given
Experiment: not given
Settings: intravenous administration, rhesus monkeys; cited from earlier work
For `Cc1nc(C#Cc2cccnc2)cs1` [MTEP, 3-[(2-methyl-1,3-thiazol-4-yl)ethynyl]pyridine], the clearance is given as “efficiently cleared”.

Target: mGluR4 (Homo sapiens, UniProt Q14833)
Sequence (Q14833 33-912): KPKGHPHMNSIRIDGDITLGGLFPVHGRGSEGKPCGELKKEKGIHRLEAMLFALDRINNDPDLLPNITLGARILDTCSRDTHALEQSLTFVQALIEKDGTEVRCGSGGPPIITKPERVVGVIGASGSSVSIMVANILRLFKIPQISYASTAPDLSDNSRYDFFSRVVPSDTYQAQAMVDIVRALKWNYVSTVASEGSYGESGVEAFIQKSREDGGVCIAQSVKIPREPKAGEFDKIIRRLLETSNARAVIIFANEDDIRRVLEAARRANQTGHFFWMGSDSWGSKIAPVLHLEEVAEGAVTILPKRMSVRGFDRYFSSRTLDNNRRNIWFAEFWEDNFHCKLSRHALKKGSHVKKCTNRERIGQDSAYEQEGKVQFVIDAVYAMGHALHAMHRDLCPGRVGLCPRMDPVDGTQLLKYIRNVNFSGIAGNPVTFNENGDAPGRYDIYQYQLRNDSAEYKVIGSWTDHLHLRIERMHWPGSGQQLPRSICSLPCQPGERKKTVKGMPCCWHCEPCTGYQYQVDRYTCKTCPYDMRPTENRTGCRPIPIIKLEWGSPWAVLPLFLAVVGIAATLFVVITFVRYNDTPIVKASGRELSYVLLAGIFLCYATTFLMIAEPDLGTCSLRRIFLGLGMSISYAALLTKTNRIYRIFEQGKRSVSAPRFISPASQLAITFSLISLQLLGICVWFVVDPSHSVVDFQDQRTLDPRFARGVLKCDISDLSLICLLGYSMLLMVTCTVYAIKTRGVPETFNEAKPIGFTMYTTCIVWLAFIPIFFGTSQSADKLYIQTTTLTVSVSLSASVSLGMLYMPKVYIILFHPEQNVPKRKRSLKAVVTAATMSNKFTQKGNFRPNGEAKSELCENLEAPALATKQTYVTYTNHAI
Experiment: not given
Settings: cited from earlier work
For `Cc1cccc(C#Cc2ccccc2)n1` [MPEP, 2-methyl-6-(phenylethynyl) pyridine], the “activity at mGluR4” value is given as “positive allosteric modulator”.

Target: T1, rat mGluR5 (Rattus norvegicus, UniProt P31424)
T1 construct: expressed in transfected cells
T1 sequence (P31424 21-1171 isoform P31424-2 limits assumed): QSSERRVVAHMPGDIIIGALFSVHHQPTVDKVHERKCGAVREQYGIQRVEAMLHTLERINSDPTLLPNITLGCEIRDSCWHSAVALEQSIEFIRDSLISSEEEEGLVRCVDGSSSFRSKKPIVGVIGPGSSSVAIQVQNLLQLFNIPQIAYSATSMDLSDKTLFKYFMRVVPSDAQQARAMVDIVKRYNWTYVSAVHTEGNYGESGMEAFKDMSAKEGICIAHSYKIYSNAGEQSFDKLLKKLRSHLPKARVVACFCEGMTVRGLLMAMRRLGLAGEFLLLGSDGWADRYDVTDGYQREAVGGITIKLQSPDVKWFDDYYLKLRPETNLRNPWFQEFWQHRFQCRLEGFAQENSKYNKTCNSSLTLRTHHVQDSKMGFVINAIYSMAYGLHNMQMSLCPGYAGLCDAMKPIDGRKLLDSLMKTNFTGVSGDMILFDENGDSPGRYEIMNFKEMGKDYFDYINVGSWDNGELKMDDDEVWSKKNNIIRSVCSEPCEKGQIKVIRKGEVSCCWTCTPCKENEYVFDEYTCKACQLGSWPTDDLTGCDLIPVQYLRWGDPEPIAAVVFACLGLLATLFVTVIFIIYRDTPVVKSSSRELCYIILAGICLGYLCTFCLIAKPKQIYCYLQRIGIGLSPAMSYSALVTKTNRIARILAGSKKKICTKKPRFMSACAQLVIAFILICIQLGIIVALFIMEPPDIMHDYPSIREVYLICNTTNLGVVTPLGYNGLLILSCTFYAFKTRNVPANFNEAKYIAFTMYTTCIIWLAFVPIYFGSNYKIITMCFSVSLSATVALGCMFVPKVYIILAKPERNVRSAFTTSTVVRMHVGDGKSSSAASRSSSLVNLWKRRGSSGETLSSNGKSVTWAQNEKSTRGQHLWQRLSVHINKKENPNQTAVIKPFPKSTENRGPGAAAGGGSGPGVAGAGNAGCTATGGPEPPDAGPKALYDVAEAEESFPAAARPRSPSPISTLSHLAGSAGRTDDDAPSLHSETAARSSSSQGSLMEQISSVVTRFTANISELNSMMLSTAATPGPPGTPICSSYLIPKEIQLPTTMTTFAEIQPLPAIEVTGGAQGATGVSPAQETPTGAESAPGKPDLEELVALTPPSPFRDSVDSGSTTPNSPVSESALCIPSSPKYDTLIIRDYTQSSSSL
Experiment: mGluR5 calcium mobilization assay (FDSS, Fluo-4) in HEK 293A cells stably expressing rat mGluR5
Format: cell-based
Settings: HEK cells transfected with rat mGluR5; antagonism of glutamate EC80 response; ± = standard error of at least three experiments
Protocol: Human embryonic kidney (HEK) cells transfected with rat or human mGluR5 were plated in clear bottom assay plates for assay in a Functional Drug Screening System (FDSS). The cells were loaded with a Ca^2+-sensitive fluorescent dye (e.g., Fluo-4), and the plates were washed and placed in the FDSS instrument. Test compound was applied to cells 3 seconds after baseline readings were taken. Cells were incubated with the test compounds for 140 seconds and then stimulated with an EC20 concentration of an mGluR5 agonist (e.g., glutamate, 3,5-dihydroxyphenylglycine, or quisqualate); 60-80 seconds later an EC80 concentration of agonist was added and readings taken for an additional 40 seconds. Data were collected at 1 Hz. […] Concentration response curves were generated using a four parameter logistical equation.
The above described assay was operated in two modes. In the first mode (utilizing a triple add protocol), a range of concentrations of the present compounds were added to cells, followed by two single fixed concentrations of agonist (EC20 followed by EC80). If a compound acted as a potentiator, an EC50 value for potentiation of the EC20 response and a maximum extent of potentiation by the compound at this concentration of agonist was determined by non-linear curve fitting. If a compound acted as an antagonist, an IC50 value for antagonism of the EC80 response and a maximum extent of antagonism by the compound at this concentration of agonist was determined by non-linear curve fitting. In the second mode (utilizing a double add protocol), several fixed concentrations of the present compounds were added to various wells on a plate, followed by a range of concentrations of agonist for each concentration of present compound; the EC50 values for the agonist at each concentration of compound were determined by nonlinear curve fitting. A decrease in the EC50 value of the agonist with increasing concentrations of the present compounds (a leftward shift of the agonist concentration-response curve) is an indication of the degree of mGluR5 positive allosteric modulation at a given concentration of the present compound. An increase in the EC50 value of the agonist with increasing concentrations of the present compounds (a rightward shift of the agonist concentration response curve) is an indication of the degree of mGluR5 antagonism at a given concentration of the present compound. The second mode also indicates whether the present compounds also affect the maximum response to mGluR5 to agonists.
The mGluR5 activity was determined using the calcium mobilization assays in human embryonic kidney cells as described herein below, wherein the human embryonic kidney cells were transfected with rat mGluR5. The mGluR5 activity data for some compounds are shown as the average of at least three experiments with the standard error in these cases. If no error is indicated for the mGluR5 activity, the values given represent the results from a single experiment or the average of two experiments. The compounds in Table 1 were synthesized with methods identical or analogous to those shown herein. The requisite starting materials were commercially available, described in the literature, or readily synthesized by one skilled in the art of organic synthesis.
GluMax is the amplitude of response in the presence of 30 μM test compound as a percentage of maximal response (100 μM glutamate). Partial antagonists display concentration-response curves (CRCs) that plateau above 10%.
The preparation of rat mGluR5 stable cell-lines is as previously described (e.g. see Romano et al. J Biol. Chem. 1996 Nov. 8; 271(45):28612-6).
In the case of `COc1cncc(Oc2cc(C(=O)Nc3ccc(C)cn3)c3ncnn3c2)c1`, the IC50 is reported as 218 nM.
Work on `O=C(Nc1ccc(F)cn1)c1cc(Oc2cncnc2)cn2cnnc12` yielded an IC50 of 162 nM.
Molecule `Cc1csc(NC(=O)c2cc(Oc3cncc(C#N)c3)cn3cnnc23)n1` has an IC50 of 1210 nM.
In the case of `[2H]c1nc(NC(=O)c2cc(Oc3cncc(OC)c3)cn3cnnc23)c([2H])c([2H])c1[2H]`, the IC50 is reported as 1230 nM.
Work on `O=C(Nc1cccc(F)n1)c1cc(Oc2cncc(Cl)c2)cn2cnnc12` yielded an IC50 of 414 nM.
For `O=C(Nc1cc(F)ccn1)c1cc(Oc2cncc(F)c2)cn2cnnc12`, the IC50 was 1170 nM.
`CCc1cccc(NC(=O)c2cc(Oc3cncc(OC)c3)cn3ccnc23)n1` showed an IC50 of 377 nM.
`O=C(Nc1ccc(F)cn1)c1cc(Oc2cncc(Cl)c2)cn2ccnc12` showed an IC50 of 76 nM.
`CCc1cccc(NC(=O)c2cc(Oc3cncc(C)c3)cn3ncnc23)n1` showed an IC50 of 483 nM.
`COc1cccc(NC(=O)c2cc(Oc3cncc(Cl)c3)cn3ncnc23)n1` gave an IC50 of 236 nM.
`Cc1ccc(NC(=O)c2cc(Oc3cncc(Cl)c3)cn3ncnc23)nc1` gave an IC50 of 135 nM.
`Cc1ccc(NC(=O)c2cc(Oc3cncc(F)c3)cn3ncnc23)nc1` gave an IC50 of 53 nM.
In the case of `[2H]c1nc(NC(=O)c2cc(Oc3cccnc3)cn3ncnc23)c([2H])c([2H])c1[2H]`, the IC50 is reported as 26 nM.
Work on `[2H]c1nc(NC(=O)c2cc(Oc3cncc(OC)c3)cn3ncnc23)c([2H])c([2H])c1[2H]` yielded an IC50 of 104 nM.
In the case of `COc1cccc(NC(=O)c2cc(Oc3cncc(Cl)c3)cn3cnnc23)n1`, the IC50 is reported as 1360 nM.
For `O=C(Nc1ccccn1)c1cc(Oc2cncc(F)c2)cn2ncnc12`, the IC50 was 25 nM.
`N#Cc1cncc(Oc2cc(C(=O)Nc3ccccn3)c3ncnn3c2)c1` gave an IC50 of 105 nM.
In the case of `CCc1cccc(NC(=O)c2cc(Oc3cncc(F)c3)cn3ccnc23)n1`, the IC50 is reported as 248 nM.
With `O=C(Nc1ccccn1)c1cc(Oc2cncc(F)c2)cn2ccnc12` the IC50 was 16 nM.
Molecule `COc1cccc(NC(=O)c2cc(Oc3cncc(C)c3)cn3ncnc23)n1` has an IC50 of 260 nM.
For `Cc1cncc(Oc2cc(C(=O)Nc3nc(C)cs3)c3ncnn3c2)c1`, the IC50 was 128 nM.
Work on `COc1cncc(Oc2cc(C(=O)Nc3ccc(C)cn3)c3nncn3c2)c1` yielded an IC50 of 3600 nM.
`CCc1cccc(NC(=O)c2cc(Oc3cncc(F)c3)cn3c(C)nnc23)n1` showed an IC50 of 1180 nM.
Work on `O=C(Nc1ccccn1)c1cc(Oc2cncc(Cl)c2)cn2ccnc12` yielded an IC50 of 33 nM.
Molecule `CCc1cccc(NC(=O)c2cc(Oc3cncnc3)cn3cnnc23)n1` has an IC50 of 2060 nM.
For `Cc1nc2c(C(=O)Nc3ccccn3)cc(Oc3cncc(F)c3)cn2n1`, the IC50 was 97 nM.
In the case of `COc1cncc(Oc2cc(C(=O)Nc3cccc(OC)n3)c3nncn3c2)c1`, the IC50 is reported as > 10000 nM.
`Cc1cccc(NC(=O)c2cc(Oc3cncc(Cl)c3)cn3cnnc23)n1` showed an IC50 of 695 nM.
With `COc1cccc(NC(=O)c2cc(Oc3cncc(F)c3)cn3cnnc23)n1` the IC50 was 146 nM.
`[2H]c1nc(NC(=O)c2cc(Oc3cncc(F)c3)cn3cnnc23)c([2H])c([2H])c1[2H]` showed an IC50 of 45 nM.
`Cc1csc(NC(=O)c2cc(Oc3cncc(C#N)c3)cn3ccnc23)n1` showed an IC50 of 127 nM.
With `COc1cncc(Oc2cc(C(=O)Nc3cccc(C)n3)c3nncn3c2)c1` the IC50 was 2150 nM.
`Cc1ccc(NC(=O)c2cc(Oc3cncc(C)c3)cn3ncnc23)nc1` showed an IC50 of 267 nM.
For `[2H]c1nc(NC(=O)c2cc(Oc3cncc(Cl)c3)cn3cnnc23)c([2H])c([2H])c1[2H]`, the IC50 was 217 nM.
`O=C(Nc1ccccn1)c1cc(Oc2cncc(F)c2)cn2cnnc12` gave an IC50 of 33 nM.
`COc1ccc(NC(=O)c2cc(Oc3cncc(F)c3)cn3ccnc23)nc1` gave an IC50 of 39 nM.
Work on `COc1cncc(Oc2cc(C(=O)Nc3ccccn3)c3nncn3c2)c1` yielded an IC50 of 897 nM.
Work on `COc1cncc(Oc2cc(C(=O)Nc3cccc(OC)n3)c3nccn3c2)c1` yielded an IC50 of 268 nM.
With `Cc1ncc(Oc2cc(C(=O)Nc3ccccn3)c3nccn3c2)cn1` the IC50 was 3310 nM.
Work on `Cc1csc(NC(=O)c2cc(Oc3cc(F)cnc3F)cn3ncnc23)n1` yielded an IC50 of 110 nM.
`O=C(Nc1ccc(F)cn1)c1cc(Oc2cc(F)cnc2F)cn2ncnc12` showed an IC50 of 138 nM.
`O=C(Nc1ccccn1)c1cc(Oc2cncc(F)c2F)cn2ncnc12` gave an IC50 of 36 nM.
`Cc1csc(NC(=O)c2cc(Oc3cncc(F)c3)cn3c(C)nnc23)n1` showed an IC50 of 426 nM.
With `O=C(Nc1cccc(F)n1)c1cc(Oc2cncc(F)c2)cn2cnnc12` the IC50 was 50 nM.
`Cc1nnc2c(C(=O)Nc3ccc(F)cn3)cc(Oc3cncc(F)c3)cn12` gave an IC50 of 360 nM.

Test system: male Harlan CD-1 mice
Experiment: not given
Settings: literature; cited from earlier work
In the case of `Cc1cccc(C#Cc2ccccc2)n1` [MPEP, 2-methyl-6-(phenylethynyl) pyridine], the “effect in marble burying model” value is listed as “effective”.
For `CN1CC(=O)N=C1NC(=O)Nc1cccc(Cl)c1` [fenobam, 1-(3-chlorophenyl)-3-(1-methyl-4-oxo-4,5-dihydro-1H-imidazol-2-yl)urea], the “effect in marble burying model” value is given as “effective”.

Target: T2, cytochrome P450 1A2 (Homo sapiens, UniProt P05177)
T2 sequence (P05177 1-516): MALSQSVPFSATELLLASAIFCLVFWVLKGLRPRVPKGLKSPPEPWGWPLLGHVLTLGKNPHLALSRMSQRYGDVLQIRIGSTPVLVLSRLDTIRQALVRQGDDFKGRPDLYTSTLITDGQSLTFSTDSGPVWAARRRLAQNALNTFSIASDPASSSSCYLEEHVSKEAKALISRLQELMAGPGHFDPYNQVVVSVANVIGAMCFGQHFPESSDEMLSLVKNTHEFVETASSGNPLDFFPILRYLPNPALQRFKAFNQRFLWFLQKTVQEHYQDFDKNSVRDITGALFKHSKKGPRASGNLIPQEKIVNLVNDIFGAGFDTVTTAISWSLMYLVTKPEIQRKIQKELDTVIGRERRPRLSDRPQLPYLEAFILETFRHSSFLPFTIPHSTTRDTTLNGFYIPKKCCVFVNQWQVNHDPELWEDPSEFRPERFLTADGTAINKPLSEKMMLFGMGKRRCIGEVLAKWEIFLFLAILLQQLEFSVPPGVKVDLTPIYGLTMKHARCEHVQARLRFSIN
Experiment: not given
Settings: cited from earlier work
In the case of `Cc1nc(C#Cc2cccnc2)cs1` [MTEP, 3-[(2-methyl-1,3-thiazol-4-yl)ethynyl]pyridine], the “cytochrome P450 1A2 inhibition” value is listed as “potent inhibitor”.
